Measurements from patent US20260116867A1, “PROTEOLYSIS TARGETING CHIMERAS FOR HUMAN PREGNANE X RECEPTOR AND FOR DEGRADATION OF GSPT1” (ST. JUDE CHILDREN'S RESEARCH HOSPITAL, priority 2022, published 2026).
Entries after “also recorded” stand apart in the source; their conditions may differ.

What was measured:
PXR [1] = target: T1, PXR (Homo sapiens, UniProt O75469); test: cell-based hPXR agonistic assay; conditions: for Agonist (% activation at 10 μM): rifampicin at 10 μM as 100% activation, DMSO (0.3%) as 0%
T1 sequence (O75469 1-434): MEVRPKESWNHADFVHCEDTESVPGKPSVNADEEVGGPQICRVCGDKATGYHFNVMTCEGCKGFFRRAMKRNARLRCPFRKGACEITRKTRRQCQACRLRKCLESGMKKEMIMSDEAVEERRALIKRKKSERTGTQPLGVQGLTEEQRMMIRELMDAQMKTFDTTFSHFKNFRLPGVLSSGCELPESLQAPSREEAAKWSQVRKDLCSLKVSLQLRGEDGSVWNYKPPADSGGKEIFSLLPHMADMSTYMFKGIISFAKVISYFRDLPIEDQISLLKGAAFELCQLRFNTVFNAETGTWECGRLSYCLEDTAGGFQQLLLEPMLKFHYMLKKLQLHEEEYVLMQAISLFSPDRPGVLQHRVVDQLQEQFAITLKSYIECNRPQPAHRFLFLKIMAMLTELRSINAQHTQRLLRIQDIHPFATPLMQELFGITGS

His-CRBN/DDB1 = target: T2, His-CRBN/DDB1 (Homo sapiens, UniProt Q96SW2); test: TR-FRET CRBN competitive binding assay (BODIPY FL thalidomide probe); conditions: for CRBN binding (in words): FIG. 9D
T2 construct: made in house; host or cells: Sf9 insect cells (baculovirus)
Method: The pFastBacDual-6xHis-CRBN/DDB1 plasmid was cloned by GenScript and used for baculoviral expression of His-CRBN and untagged DDB1. Protein was expressed and purified essentially as described previously. The bacmid was produced in MAX Efficiency DH10Bac Competent Cells (Thermo Fisher Scientific) according to the manufacturer's instructions. To generate the P1 virus, 1×10^6 Sf9 cells were plated in each well of a six-well plate in 2 mL Sf-900 III SFM and transfected with 7 μg bacmid using Cellfectin II reagent (Thermo Fisher Scientific). After 6 h at 27° C., the media was replaced with 2 mL fresh Sf-900 III SFM. After three days, the supernatant was collected, centrifuged at 500×g for 5 min to remove cells and debris, transferred to new tubes, and stored at 4° C. To generate P2 virus, 2 mL P1 virus was added to 1×10^8 Sf9 cells in 50 mL Sf-900 III SFM and shaken at 27° C. for three days. The supernatant was collected and clarified as above. For protein expression, 5 mL P2 virus was added to each liter of Sf cells (2×10^6 cells/mL) and shaken at 27° C. for three days. Cells containing expressed protein were pelleted by centrifugation at 500×g for 5 min, the supernatant was removed, and pellets were stored at −80° C. until processing. […] The suspension was incubated on ice for 1 h, gently sonicated, and centrifuged for 1 h at 40,000×g at 4° C. The supernatant was applied to Ni-NTA Superflow resin (QIAGEN) equilibrated with lysis buffer. The resin was washed with 10 column volumes (CV) of lysis buffer, and proteins were eluted with 10 CV lysis buffer containing 500 mM imidazole. The solution was diluted to 200 mM NaCl using lysis buffer without NaCl and applied to a HiTrap ANX FF (High Sub) column (Cytiva) equilibrated with ANX binding buffer [50 mM Tris (pH 7.5), 200 mM NaCl, 3 mM TCEP]. The column was washed with 10 CV ANX binding buffer followed by 10 CV ANX wash buffer [50 mM Bis-Tris (pH 6.0), 200 mM NaCl, 3 mM TCEP]. A 20 CV linear gradient was then immediately applied from ANX binding buffer to ANX binding buffer containing 1 M NaCl using an AKTA avant chromatography system (Cytiva). The purest fractions were applied to a HiLoad 26/600 Superdex 200 pg size exclusion column equilibrated with 10 mM HEPES (pH 7.0), 240 mM NaCl, and 3 mM TCEP. Pure protein was concentrated to 20-30 mg/mL in Pierce PES Protein Concentrators (Thermo Fisher Scientific), flash frozen in liquid nitrogen, and stored at −80° C.
The assay buffer composition was 50 mM Tris (pH 7.5), 0.1% Triton X-100, 0.01% bovine serum albumin, and 1 mM DTT. […] Lastly, 5 μL/well of 8 nM Tb-anti-His and 8 nM His-CRBN/DDB1 in assay buffer was added. […] The plates were then protected from light exposure and incubated for 60 minutes at room temperature (RT). After incubation, the TR-FRET signal from each well was collected with a PHERAstar FS Microplate Reader (BMG Labtech). The percent inhibition for each well was calculated using equation 2: […]

GSPT1 = target: T3, GSPT1 (Homo sapiens, UniProt P15170+Q96SW2); test: Western blot of GSPT1 protein in SNU—C4 3xFLAG-PXR KI cells; assay type: cell-based; conditions: for GSPT1 Loss at 10 μM (% ± SD): 10 μM compound, calculated from western blots FIG. 9A; for GSPT1 degradation (in words): western blot, SNU—C4 3xFLAG-PXR KI cells
T3 construct: endogenous in cells
Method: (§1) The following day, DMSO or compounds were added to result in 0.5% DMSO and the indicated compound concentrations, and cells were incubated for the indicated time points. Cells were lysed and subjected to western blotting as above using antibodies against FLAG (Sigma-Aldrich, cat. #F3165, 1:2,000 dilution), GSPT1 (Abcam, cat. #ab126090, 1:4,000 dilution), and R-Actin (Cell Signaling Technology, cat. #4967, 1:2,000 dilution).

PXR [2] = target: T1, PXR; test: Western blot of endogenous 3xFLAG-PXR protein in SNU—C4 3xFLAG-PXR KI cells; assay type: cell-based; set-up: To assess SJPYT-195 activity against endogenous PXR, CRISPR-Cas9 was used; endogenous in cells; conditions: western blot, SNU—C4 3xFLAG-PXR KI cells
Method: as §1

PXR [3] = target: T1, PXR; test: cell-based hPXR inverse agonistic assay; conditions: for inhibition at 10 µM: read-out: Inverse agonist (% inhibition at 10 μM); for IC50: read-out: Inverse agonist (IC50/μM)
PXR [4] = target: T1, PXR; test: cell-based hPXR antagonistic assay; conditions: for inhibition at 10 µM: read-out: Antagonist (% inhibition at 10 μM); for IC50: read-out: Antagonist (IC50/μM)
PXR [5] = target: T1, PXR; test: hPXR binding assay; conditions: for inhibition at 10 µM: read-out: Binding (% inhibition at 10 μM)

Compound	Agonist (% activation at 10 μM) (PXR [1])	GSPT1 Loss at 10 μM (% ± SD) (GSPT1) [%]	CRBN binding (in words) (His-CRBN/DDB1)	GSPT1 degradation (in words) (GSPT1)	inhibition at 10 µM (PXR [3]) [%]	IC50 (PXR [3]) [µM]	inhibition at 10 µM (PXR [4]) [%]	IC50 (PXR [4]) [µM]	also measured
CO[C@H]1/C=C/O[C@@]2(C)Oc3c(C)c(O)c4c(O)c(c(/C=N/N5CCN(C)CC5)c(O)c4c3C2=O)NC(=O)/C(C)=C\C=C\[C@H](C)[C@H](O)[C@@H](C)[C@@H](O)[C@@H](C)[C@H](OC(C)=O)[C@@H]1C [Rifampicin, reference compound]	(100 ± 2)%								
COc1ccc(OC)c(-n2nnc(C(=O)Nc3cc(OCCCCCCCCN4C(=O)CCC(N5C(=O)c6cccc(N)c6C5=O)C4=O)cc(C(C)(C)C)c3)c2C)c1 (centres unmarked) [Compound N5, N-(3-((8-(3-(4-amino-1,3-dioxoisoindolin-2-yl)-2,6-dioxopiperidin-1-yl)octyl)oxy)-5-(tert-butyl)phenyl)-1-(2,5-dimethoxyphenyl)-5-methyl-1H-1,2,3-triazole-4-carboxamide]	(81 ± 5)%								
CC(=O)Nc1cc(Nc2cccc3c2C(=O)N(C2CCC(=O)NC2=O)C3=O)cc(C(C)(C)C)c1 (centres unmarked) [Compound A3, N-(3-(tert-butyl)-5-((2-(2,6-dioxopiperidin-3-yl)-1,3-dioxoisoindolin-4-yl)amino)phenyl)acetamide]		15 ± 21							CRBN binding (in words) (His-CRBN/DDB1; listed as SJPYT-231): strongest CRBN binding of all tested compounds; also recorded: maintained strong CRBN binding; also recorded: higher affinity CRBN binder than thalidomide or pomalidomide; GSPT1 degradation (in words) (GSPT1; listed as SJPYT-231): did not affect either PXR or GSPT1 levels; also recorded: lost the degradation activity of GSPT1; PXR protein level (in words) (PXR [2]): did not affect either PXR or GSPT1 levels
COc1ccc(OC)c(-n2nnc(C(=O)Nc3cc(OC(=O)CNc4cccc5c4C(=O)N(C4CCC(=O)NC4=O)C5=O)cc(C(C)(C)C)c3)c2C)c1 (centres unmarked) [Compound M7, 3-(tert-butyl)-5-(1-(2,5-dimethoxyphenyl)-5-methyl-1H-1,2,3-triazole-4-carboxamido)phenyl (2-(2,6-dioxopiperidin-3-yl)-1,3-dioxoisoindolin-4-yl)glycinate]		46 ± 1.5	retained strong binding of CRBN	only weakly degraded GSPT1	103	0.2 ± 0.038	71	1.38 ± 0.47	
COc1ccc(OC)c(-n2nnc(C(=O)Nc3cc(OCCNc4cccc5c4C(=O)N(C4CCC(=O)NC4=O)C5=O)cc(C(C)(C)C)c3)c2C)c1 (centres unmarked) [Compound M10, N-(3-(tert-butyl)-5-(2-((2-(2,6-dioxopiperidin-3-yl)-1,3-dioxoisoindolin-4-yl)amino)ethoxy)phenyl)-1-(2,5-dimethoxyphenyl)-5-methyl-1H-1,2,3-triazole-4-carboxamide]		72 ± 2.3	retained strong binding of CRBN	strong GSPT1 degradation	128	0.042 ± 0.0085	102	0.23 ± 0.023	
COc1ccc(OC)c(-n2nnc(C(=O)Nc3cc(NCCNc4cccc5c4C(=O)N(C4CCC(=O)NC4=O)C5=O)cc(C(C)(C)C)c3)c2C)c1 (centres unmarked) [Compound M11, N-(3-(tert-butyl)-5-((2-((2-(2,6-dioxopiperidin-3-yl)-1,3-dioxoisoindolin-4-yl)amino)ethyl)amino)phenyl)-1-(2,5-dimethoxyphenyl)-5-methyl-1H-1,2,3-triazole-4-carboxamide]		63 ± 13	retained strong binding of CRBN	strong GSPT1 degradation	135	0.0079	109	0.026 ± 0.0008	IC50 (PXR [5]): 0.67 ± 0.014 µM; inhibition at 10 µM (PXR [5]): 61%
COc1ccc(OC)c(-n2nnc(C(=O)Nc3cc(NC(=O)CNc4cccc5c4C(=O)N(C4CCC(=O)NC4=O)C5=O)cc(C(C)(C)C)c3)c2C)c1 (centres unmarked) [Compound M8, N-(3-(tert-butyl)-5-(2-((2-(2,6-dioxopiperidin-3-yl)-1,3-dioxoisoindolin-4-yl)amino)acetamido)phenyl)-1-(2,5-dimethoxyphenyl)-5-methyl-1H-1,2,3-triazole-4-carboxamide]		89 ± 3.1	retained strong binding of CRBN	strong GSPT1 degradation	19	13.2 ± 1.28			
CC(C)(C)c1cc(N)cc(Oc2cccc3c2C(=O)N(C2CCC(=O)NC2=O)C3=O)c1 (centres unmarked) [Compound A1, 4-(3-amino-5-(tert-butyl)phenoxy)-2-(2,6-dioxopiperidin-3-yl)isoindoline-1,3-dione]		23 ± 2.8	maintained strong CRBN binding	lost the degradation activity of GSPT1					
COc1ccc(OC)c(-n2nnc(C(=O)Nc3cc(C(C)(C)C)ccc3OCCCCN3C(=O)CCC(N4Cc5c(N)cccc5C4=O)C3=O)c2C)c1 (centres unmarked) [Compound N1, N-(2-(4-(3-(4-amino-1-oxoisoindolin-2-yl)-2,6-dioxopiperidin-1-yl)butoxy)-5-(tert-butyl)phenyl)-1-(2,5-dimethoxyphenyl)-5-methyl-1H-1,2,3-triazole-4-carboxamide]	(55 ± 5)%								IC50 (PXR [5]): 1.27 ± 0.48 µM; inhibition at 10 µM (PXR [5]): 34%; EC50 (PXR [1]; NA = no value within concentration range tested (highest 30 μM), read-out: Agonist (EC50/μM)): 0.75 ± 0.11 µM
COc1ccc(OC)c(-n2nnc(C(=O)Nc3cc(OCC(=O)Nc4cccc5c4C(=O)N(C4CCC(=O)NC4=O)C5=O)cc(C(C)(C)C)c3)c2C)c1 (centres unmarked) [Compound M9, N-(3-(tert-butyl)-5-(2-((2-(2,6-dioxopiperidin-3-yl)-1,3-dioxoisoindolin-4-yl)amino)-2-oxoethoxy)phenyl)-1-(2,5-dimethoxyphenyl)-5-methyl-1H-1,2,3-triazole-4-carboxamide]		20 ± 4.8	greatly reduced CRBN binding						EC50 (His-CRBN/DDB1; TR-FRET competitive binding, derived from FIG. 9D, read-out: CRBN Binding EC50 ± SD): > 333 nM
